Measured values reported in ChEMBL document CHEMBL4118053, “Antimicrobial Spirotetronate Metabolites from Marine-Derived Micromonospora harpali SCSIO GJ089” (2017).
Converted amounts (≈) assume the structure as drawn.

Columns and labels:
Assay type in all cases: functional
Bacillus subtilis = assay: Antibacterial activity against Bacillus subtilis BS01 by CLSI method
Bacillus thuringiensis = assay: Antibacterial activity against Bacillus thuringiensis BT01 by CLSI method
Enterococcus faecalis = assay: Antibacterial activity against Enterococcus faecalis ATCC 29212 by CLSI method
Staphylococcus aureus [1] = assay: Antibacterial activity against Staphylococcus aureus ATCC 29213 by CLSI method
Staphylococcus aureus [2] = assay: Antibacterial activity against methicillin-resistant Staphylococcus aureus isolate shhs-A1 by CLSI method

SMILES	MIC (Bacillus subtilis) [µg/mL]	MIC (Bacillus thuringiensis) [µg/mL]	MIC (Enterococcus faecalis) [µg/mL]	MIC (Staphylococcus aureus [1]) [µg/mL]	MIC (Staphylococcus aureus [2]) [µg/mL]
COC(=O)N[C@H]1[C@@H](C)O[C@@H](O[C@H]2C/C=C(\C)[C@@H]3C=C[C@@H]4[C@@H](O[C@H]5C[C@@H](O[C@H]6CC[C@@H](O[C@@H]7C[C@@H](O)[C@@H](O[C@H]8CC[C@@H](O)[C@H](C)O8)[C@H](C)O7)[C@H](C)O6)[C@@H](OC(C)=O)[C@H](C)O5)[C@@H](C)C[C@H](C)[C@H]4[C@]3(C)C(=O)C3=C(O)[C@@]4(CC(/C=C/C(C)=O)=C[C@H](O)[C@H]4/C=C/2C)OC3=O)C[C@]1(C)N	2 (≈ 1.51 µM)	1 (≈ 0.756 µM)	> 128	> 128	> 128
C/C1=C\[C@@H]2C=C[C@H](C)C[C@]23OC(=O)C(=C3O)C(=O)[C@@]2(C)[C@H]3[C@H](C=C[C@H]2/C(C)=C/C[C@@H]1O)[C@@H](O)[C@](C)(O)C[C@@H]3C	> 128	> 128	> 128	> 128	> 128
COC(=O)N[C@H]1[C@@H](C)O[C@@H](O[C@H]2C/C=C(\C)[C@@H]3C=C[C@@H]4[C@@H](O[C@H]5C[C@@H](O[C@H]6CC[C@@H](O[C@@H]7C[C@@H](O)[C@@H](O)[C@H](C)O7)[C@H](C)O6)[C@@H](OC(C)=O)[C@H](C)O5)[C@@H](C)C[C@H](C)[C@H]4[C@]3(C)C(=O)C3=C(O)[C@@]4(CC(C=O)=C[C@H](O)[C@H]4/C=C/2C)OC3=O)C[C@]1(C)[N+](=O)[O-]	0.063 (≈ 0.0525 µM)	0.063 (≈ 0.0525 µM)	64 (≈ 53.4 µM)	32 (≈ 26.7 µM)	32 (≈ 26.7 µM)
COC(=O)N[C@H]1[C@@H](C)O[C@@H](O[C@H]2C/C=C(\C)[C@@H]3C=C[C@@H]4[C@@H](O[C@H]5C[C@@H](O[C@H]6C[C@@H](O)[C@@H](O[C@@H]7C[C@@H](O)[C@@H](O)[C@H](C)O7)[C@H](C)O6)[C@@H](OC(C)=O)[C@H](C)O5)[C@@H](C)C[C@H](C)[C@H]4[C@]3(C)C(=O)C3=C(O)[C@@]4(CC(/C=C/C(C)=O)=C[C@H](O)[C@H]4/C=C/2C)OC3=O)C[C@]1(C)N	8 (≈ 6.53 µM)	4 (≈ 3.26 µM)	> 128	> 128	> 128
COC(=O)N[C@H]1[C@@H](C)O[C@@H](O[C@H]2C/C=C(\C)[C@@H]3C=C[C@@H]4[C@@H](O[C@H]5C[C@@H](O[C@H]6C[C@@H](O)[C@@H](O[C@@H]7C[C@@H](O)[C@@H](O)[C@H](C)O7)[C@H](C)O6)[C@@H](OC(C)=O)[C@H](C)O5)[C@@H](C)C[C@H](C)[C@H]4[C@]3(C)C(=O)C3=C(O)[C@@]4(CC(/C=C/C(C)=O)=C[C@H](O)[C@H]4/C=C/2C)OC3=O)C[C@]1(C)[N+](=O)[O-]	0.5 (≈ 0.398 µM)	0.25 (≈ 0.199 µM)	128 (≈ 102 µM)	> 128	> 128
COC(=O)N[C@H]1[C@@H](C)O[C@@H](O[C@H]2C/C=C(\C)[C@@H]3C=C[C@@H]4[C@@H](O[C@H]5C[C@@H](O[C@H]6CC[C@@H](O[C@@H]7C[C@@H](O)[C@@H](O[C@H]8CC[C@@H](O)[C@H](C)O8)[C@H](C)O7)[C@H](C)O6)[C@@H](OC(C)=O)[C@H](C)O5)[C@@H](C)C[C@H](C)[C@H]4[C@]3(C)C(=O)C3=C(O)[C@@]4(CC(/C=C/C(C)=O)=C[C@H](O)[C@H]4/C=C/2C)OC3=O)C[C@]1(C)[N+](=O)[O-]	0.03 (≈ 0.0222 µM)	0.016 (≈ 0.0118 µM)	64 (≈ 47.3 µM)	32 (≈ 23.6 µM)	32 (≈ 23.6 µM)
COC(=O)N[C@H]1[C@@H](C)O[C@@H](O[C@H]2C/C=C(\C)[C@@H]3C=C[C@@H]4[C@@H](O[C@H]5C[C@@H](O[C@H]6CC[C@@H](O[C@@H]7C[C@@H](O)[C@@H](O[C@H]8CC[C@@H](O)[C@H](C)O8)[C@H](C)O7)[C@H](C)O6)[C@@H](OC(C)=O)[C@H](C)O5)[C@@H](C)C[C@H](C)[C@H]4[C@]3(C)C(=O)C3=C(O)[C@@]4(CC(C=O)=C[C@H](O)[C@H]4/C=C/2C)OC3=O)C[C@]1(C)[N+](=O)[O-]	0.03 (≈ 0.0228 µM)	0.016 (≈ 0.0122 µM)	64 (≈ 48.7 µM)	32 (≈ 24.4 µM)	32 (≈ 24.4 µM)
COC(=O)N[C@H]1[C@@H](C)O[C@@H](O[C@H]2C/C=C(\C)[C@@H]3C=C[C@@H]4[C@@H](O[C@H]5C[C@@H](O[C@H]6CC[C@@H](O[C@@H]7C[C@@H](O)[C@@H](O)[C@H](C)O7)[C@H](C)O6)[C@@H](OC(C)=O)[C@H](C)O5)[C@@H](C)C[C@H](C)[C@H]4[C@]3(C)C(=O)C3=C(O)[C@@]4(CC(/C=C/C(C)=O)=C[C@H](O)[C@H]4/C=C/2C)OC3=O)C[C@]1(C)N	2 (≈ 1.65 µM)	1 (≈ 0.827 µM)	> 128	128 (≈ 106 µM)	> 128
COC(=O)N[C@H]1[C@@H](C)O[C@@H](O[C@H]2C/C=C(\C)[C@@H]3C=C[C@@H]4[C@@H](O[C@H]5C[C@@H](O[C@H]6CC[C@@H](O[C@@H]7C[C@@H](O)[C@@H](O)[C@H](C)O7)[C@H](C)O6)[C@@H](OC(C)=O)[C@H](C)O5)[C@@H](C)C[C@H](C)[C@H]4[C@]3(C)C(=O)C3=C(O)[C@@]4(CC(/C=C/C(C)=O)=C[C@H](O)[C@H]4/C=C/2C)OC3=O)C[C@]1(C)[N+](=O)[O-]	0.13 (≈ 0.105 µM)	0.063 (≈ 0.0508 µM)	64 (≈ 51.6 µM)	32 (≈ 25.8 µM)	32 (≈ 25.8 µM)
C/C1=C\[C@@H]2C=C[C@H](C)C[C@]23OC(=O)C(=C3O)C(=O)[C@@]2(C)[C@H]3[C@H](C=C[C@H]2/C(C)=C/C[C@@H]1O)[C@@H](O)[C@@H](C)C[C@@H]3C	64 (≈ 122 µM)	64 (≈ 122 µM)	128 (≈ 245 µM)	128 (≈ 245 µM)	128 (≈ 245 µM)
COC(=O)N[C@H]1[C@@H](C)O[C@@H](O[C@H]2C/C=C(\C)[C@@H]3C=C[C@@H]4[C@@H](O[C@H]5C[C@@H](O[C@H]6CC[C@@H](O[C@@H]7C[C@@H](O)[C@@H](O[C@H]8CC[C@@H](O)[C@H](C)O8)[C@H](C)O7)[C@H](C)O6)[C@@H](OC(C)=O)[C@H](C)O5)[C@@H](C)C[C@H](C)[C@H]4[C@]3(C)C(=O)C3=C(O)[C@@]4(CC(C=O)=C[C@H](O)[C@H]4/C=C/2C)OC3=O)C[C@]1(C)N	2 (≈ 1.56 µM)	1 (≈ 0.779 µM)	> 128	> 128	> 128
COC(=O)N[C@H]1[C@@H](C)O[C@@H](O[C@H]2C/C=C(\C)[C@@H]3C=C[C@@H]4[C@@H](O[C@H]5C[C@@H](O[C@H]6CC[C@@H](O[C@@H]7C[C@@H](O)[C@@H](O)[C@H](C)O7)[C@H](C)O6)[C@@H](OC(C)=O)[C@H](C)O5)[C@@H](C)C[C@H](C)[C@H]4[C@]3(C)C(=O)C3=C(O)[C@@]4(CC(C=O)=C[C@H](O)[C@H]4/C=C/2C)OC3=O)C[C@]1(C)N	2 (≈ 1.71 µM)	1 (≈ 0.855 µM)	> 128	> 128	> 128
CC1(C)S[C@@H]2[C@H](NC(=O)[C@H](N)c3ccccc3)C(=O)N2[C@H]1C(=O)O [AMPICILLIN]	0.25 (≈ 0.715 µM)	32 (≈ 91.6 µM)	2 (≈ 5.72 µM)	2 (≈ 5.72 µM)	1 (≈ 2.86 µM)
NC[C@H]1O[C@H](O[C@H]2[C@H](O)[C@@H](O[C@H]3O[C@H](CO)[C@@H](O)[C@H](N)[C@H]3O)[C@H](N)C[C@@H]2N)[C@H](O)[C@@H](O)[C@@H]1O [KANAMYCIN]	8 (≈ 16.5 µM)	8 (≈ 16.5 µM)	32 (≈ 66 µM)	16 (≈ 33 µM)	64 (≈ 132 µM)
CN[C@H](CC(C)C)C(=O)N[C@H]1C(=O)N[C@@H](CC(N)=O)C(=O)N[C@H]2C(=O)N[C@H]3C(=O)N[C@H](C(=O)N[C@H](C(=O)O)c4cc(O)cc(O)c4-c4cc3ccc4O)[C@H](O)c3ccc(c(Cl)c3)Oc3cc2cc(c3O[C@@H]2O[C@H](CO)[C@@H](O)[C@H](O)[C@H]2O[C@H]2C[C@](C)(N)[C@H](O)[C@H](C)O2)Oc2ccc(cc2Cl)[C@H]1O [VANCOMYCIN]	1 (≈ 0.69 µM)	2 (≈ 1.38 µM)	–	–	–
